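Where inhibition never reached the appropriate level, the endpoint shown equals the highest concentration tested. Otherwise, values were interpolated linearly from a five-concentration, 48-hour dose response in 96-well plates. GI50 is the concentration that inhibits growth by half. TGI marks complete inhibition of growth.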
How the values were obtained:
Test in all cases: NCI-60 cell line screen, 48 h
[1] = system: HL-60(TB) leukemia
[2] = system: HOP-62 NSCLC
[3] = system: SK-MEL-5 melanoma
[4] = system: SK-OV-3 ovarian
[5] = system: KM12 colon
[6] = system: MALME-3M melanoma
[7] = system: SF-295 CNS
[8] = system: SK-MEL-2 melanoma
[9] = system: NCI-H522 lung
[10] = system: MDA-MB-231 breast

| Structure (SMILES) | TGI [1] [µM] | TGI [2] [µM] | TGI [3] [µM] | TGI [4] [µM] | TGI [5] [µM] | TGI [6] [µM] | TGI [7] [µM] | TGI [8] [µM] | GI50 [1] [nM] | GI50 [2] [µM] | GI50 [7] [nM] | GI50 [3] [nM] | GI50 [4] [µM] | TGI [9] [µM] | TGI [10] [µM] | GI50 [5] [nM] | GI50 [6] [nM] | GI50 [10] [nM] | GI50 [8] [nM] |
| --- | --- | --- | --- | --- | --- | --- | --- | --- | --- | --- | --- | --- | --- | --- | --- | --- | --- | --- | --- |
| COc1ccc(C(=O)O/N=C2\CCCC\C2=C/c2ccccc2)cc1 | > 100 | > 100 | > 100 | > 100 | – | – | – | – | – | – | – | – | – | – | – | – | – | – | – |
| CC(=O)NNc1nc(C)c(C(/C=C/c2ccc(/C=C/C(=N\NC(=O)c3ccncc3)c3sc(NNC(C)=O)nc3C)cc2)=N/NC(=O)c2ccncc2)s1 | > 100 | > 100 | > 100 | > 100 | > 100 | > 100 | > 100 | > 100 | – | – | – | – | – | – | – | – | – | – | – |
| O=C(CC1Sc2ccccc2NC1=O)Nc1cccc(Cl)c1 (centres undefined) | > 100 | – | > 100 | – | – | > 100 | > 100 | > 100 | – | – | – | – | – | – | – | – | – | – | – |
| c1ccc([CH2][Sn]([CH2]c2ccccc2)([S]c2cccc3cccnc23)[S]c2cccc3cccnc23)cc1 | 0.687 | 6.94 | 1.18 | 3.15 | – | – | 2.29 | – | 273 | 0.764 | 394 | 299 | 1.76 | – | – | – | – | – | – |
| COC(=O)C1=Cc2cc3c(cc2[C@H](c2ccc4c(c2)OCO4)C1C(=O)OC)OCO3 (some centres undefined) | > 100 | > 100 | > 100 | > 100 | > 100 | > 100 | > 100 | – | – | – | – | – | – | – | – | – | – | – | – |
| Cc1c(C(=O)/C=C/c2ccco2)[n+](=O)c2ccccc2n1[O-] | > 100 | – | – | > 100 | > 100 | > 100 | > 100 | – | – | – | – | – | – | > 100 | – | – | – | – | – |
| COC(=O)C1=C(O)C(O)=C(C(=O)OC)CC1 | > 100 | > 100 | > 100 | > 100 | > 100 | > 100 | > 100 | > 100 | – | – | – | – | – | > 100 | – | – | – | – | – |
| CN(C)C1(C#N)CCC2(CC1)OCCO2 | > 100 | > 100 | > 100 | > 100 | > 100 | > 100 | > 100 | > 100 | – | – | – | – | – | > 100 | – | – | – | – | – |
| COC(=O)C1=CC(=O)C(C(=O)Nc2ccc(OC)cc2)C(c2ccccc2)O1 (centres undefined) | > 100 | 50.9 | > 73.7 | 53.5 | > 100 | > 84.8 | 61.4 | > 100 | – | – | – | – | – | 90.1 | – | – | – | – | – |
| COc1ccc(C2SC(N)=Nc3c2c(C)nn3C(=O)c2ccncc2)cc1 (centres undefined) | > 100 | > 100 | > 100 | > 100 | > 100 | > 100 | > 100 | > 100 | – | – | – | – | – | – | > 100 | – | – | – | – |
| COc1ccc(CCNc2nc3ccccc3c3[nH]c4ccccc4c23)cc1OC | 3.88 | 24.4 | 3.21 | 34.6 | 3.58 | 3.15 | 9.02 | 3.77 | 1650 | 10.9 | 2550 | 1800 | 19.9 | – | 8.03 | 1530 | 1500 | 2210 | 1980 |

From PubChem BioAssay (NCI)
